row,logP,SMILES
1,5.32,CCCCCCCCCCCCc1ccc(O)cc1O
2,3.07,CCCCCCc1ccc(O)cc1O
3,4.16,CCc1cccc(CC)c1
4,2.36,CCc1ccccc1O
5,3.97,CCn1c2ccccc2c2ccccc21
6,5.37,CCCCCCCc1ccccc1
7,4.1,CCc1ccccc1CC
8,4.51,C/C=C/CCCCC
9,2.42,OCc1ccc2ccccc2c1
10,2.51,Cc1[nH]c2ccccc2c1C

# Further lines, the compound ahead of its results:
row,SMILES,logP
1,CCC1CCCCC1,4.56
2,CC1CCCCC1,4.17
3,CCc1ccc(CC)cc1,4.22
4,O=Cc1ccc(Cl)cc1,2.34
5,CC(C)(C)C1CCCCC1,5.04
6,Oc1cccc2c1CCCC2,2.87
7,OCc1c2ccccc2cc2ccccc12,3.04
8,Cc1cccc2[nH]ccc12,2.54
9,Oc1ccc(O)c2ccccc12,2.24

# — the SangsterLogP compilation
